{
  "source": "patent US10307386B2",
  "about": "(priority 2007, dated 2019)",
  "key": {"leukocyte cystine": {"system": "leukocyte cystine", "conditions": "cited from earlier work"}, "[1]": {"system": "New Zealand white rabbits fed a high-fat diet (HFD)", "assay": "Pilot study: 7-day intraperitoneal cysteamine in rabbits fed a high-fat diet (NAFLD model)", "format": "in vivo, rabbit", "conditions": "for mean LDL-cholesterol value: control HFD 272.5 mg/dL; for mean total cholesterol value: control HFD 842 mg/dL; for mean LDH value: control HFD 190 U/L; for increase in LDL-cholesterol compared to baseline values: control HFD about 29-fold; for increase in total cholesterol over baseline value: control HFD approximately 20-fold; for decrease in LDH compared to baseline values: control HFD increased 1.7-fold", "from_the_text": "(§1) J. Pathol., 170(3):967-980 (2007). Male New Zealand white rabbits were fed a high-fat diet (HFD) containing 20% corn oil and 1.25% cholesterol in order to induce clinical and histological features characteristic of NAFLD and non-alcoholic steatohepatitis (NASH).\nEndpoints included daily standard clinical observations, quantitative daily food consumption, body weights on Study Day (SD) −1, 2, 5, and 8 (day of necropsy), and blood samples collected on SD-1 and SD8 for the evaluation of selected clinical chemistries (alanine aminotransferase (ALT), aspartate aminotransferase (AST), amylase, lipase, total cholesterol, triglycerides, lactate dehydrogenase (LDH), high density lipoprotein cholesterol (HDL-cholesterol), and low density lipoprotein cholesterol (LDL-cholesterol)) and a full hematology panel. Animals were sacrificed on SD8."}, "[2]": {"system": "New Zealand white rabbits fed a high fat diet (HFD)", "assay": "8-week study: cysteamine in drinking water in rabbits fed a high-fat diet (NAFLD/NASH model)", "format": "in vivo", "conditions": "for mean AST value: control HFD 117.1 U/L", "from_the_text": "as §1\nThe study design included five groups of eight rabbits.\nObservations during the study included twice weekly body weights, daily food and water consumption, and daily clinical observations. Blood samples were collected prior to the start of the study, and on weeks 2, 6, and 8 for a full panel of hematology parameters and a selected panel of serum chemistries, including ALT, AST, amylase, lipase, total cholesterol, triglycerides, LDH, HDL-cholesterol, and LDL-cholesterol."}, "[3]": {"system": "intracellular cystine (circulating white blood cells)", "conditions": "taken regularly; measured in circulating white blood cells; cited from earlier work"}, "[4]": {"system": "obese individuals with NASH", "conditions": "treated for 4-12 weeks; no reported change in body mass index; cited from earlier work"}, "[5]": {"system": "obese children who had steatosis", "conditions": "vitamin E 400-1000 IU/day for 4-10 months, cited from earlier work"}, "[6]": {"conditions": "delivery of cysteamine to the small intestine"}, "[7]": {"conditions": "week 8, 250 mg/kg/day in drinking water"}},
  "data": [
    {"compound": "NCCS", "note": "[cysteamine]", "values": [
      {"measurement": "time to observed decrease in leukocyte cystine", "setting": "leukocyte cystine; delivery into the small intestine", "value": "within an hour"},
      {"measurement": "AUC", "setting": "leukocyte cystine; [6]", "value": "increases"},
      {"measurement": "Cmax", "setting": "leukocyte cystine; [6]", "value": "increases"},
      {"measurement": "LDH as % of the control HFD values on SD8", "setting": "[1]; 75 mg/kg/day IP Q8H", "value": 33, "unit": "%"},
      {"measurement": "LDH as % of the control HFD values on SD8", "setting": "[1]; 250 mg/kg/day IP Q8H", "value": 59, "unit": "%"},
      {"measurement": "LDL-cholesterol: % less of an increase than the HFD controls", "setting": "[1]; SD8, 75 mg/kg/day IP Q8H", "value": 23, "unit": "%"},
      {"measurement": "total cholesterol: % less of an increase than the HFD controls", "setting": "[1]; SD8, 75 mg/kg/day IP Q8H", "value": 23, "unit": "%"},
      {"measurement": "mean LDL-cholesterol value", "setting": "[1]; SD8, 75 mg/kg/day IP Q8H", "value": 210, "unit": "mg/dL"},
      {"measurement": "mean total cholesterol value", "setting": "[1]; SD8, 75 mg/kg/day IP Q8H", "value": 652, "unit": "mg/dL"},
      {"measurement": "mean LDH value", "setting": "[1]; SD8, 75 mg/kg/day IP Q8H", "value": 128, "unit": "U/L"},
      {"measurement": "increase in LDL-cholesterol compared to baseline values", "setting": "[1]; SD8, 75 mg/kg/day IP Q8H", "value": "about 12 fold"},
      {"measurement": "increase in total cholesterol over baseline value", "setting": "[1]; SD8, 75 mg/kg/day IP Q8H", "value": "~12", "unit": "fold"},
      {"measurement": "decrease in LDH compared to baseline values", "setting": "[1]; SD8, 75 mg/kg/day IP Q8H", "value": 1.2, "unit": "fold"},
      {"measurement": "LDL-cholesterol: % less of an increase than the HFD controls", "setting": "[1]; SD8, 250 mg/kg/day IP Q8H", "value": 45, "unit": "%"},
      {"measurement": "decrease in mean AST value vs control HFD group", "setting": "[1]; SD8, 250 mg/kg/day IP Q8H", "value": 1.9, "unit": "fold"},
      {"measurement": "mean AST as % of the control HFD value", "setting": "[1]; SD8, 250 mg/kg/day IP Q8H", "value": 47, "unit": "%"},
      {"measurement": "total cholesterol: % less of an increase than the HFD control values", "setting": "[1]; SD8, 250 mg/kg/day IP Q8H", "value": 59, "unit": "%"},
      {"measurement": "mean LDL-cholesterol value", "setting": "[1]; SD8, 250 mg/kg/day IP Q8H", "value": 150.5, "unit": "mg/dL"},
      {"measurement": "mean total cholesterol value", "setting": "[1]; SD8, 250 mg/kg/day IP Q8H", "value": 347, "unit": "mg/dL"},
      {"measurement": "mean LDH value", "setting": "[1]; SD8, 250 mg/kg/day IP Q8H", "value": 77.5, "unit": "U/L"},
      {"measurement": "increase in LDL-cholesterol compared to baseline values", "setting": "[1]; SD8, 250 mg/kg/day IP Q8H", "value": "about 14 fold"},
      {"measurement": "increase in total cholesterol over baseline value", "setting": "[1]; SD8, 250 mg/kg/day IP Q8H", "value": "~7.5", "unit": "fold"},
      {"measurement": "mean AST value", "setting": "[1]; SD8, 250 mg/kg/day IP Q8H, control HFD group 19.0 U/L", "value": 10.0, "unit": "U/L"},
      {"measurement": "decrease in LDH compared to baseline values", "setting": "[1]; SD8, 250 mg/kg/day IP Q8H", "value": 3.1, "unit": "fold"},
      {"measurement": "body weights", "setting": "[2]; cysteamine treated animals vs control HFD animals", "value": "parallel those of the control HFD animals"},
      {"measurement": "animals that died on study or were sacrificed moribund", "setting": "[2]; rabbit, in vivo, 75 mg/kg/day", "value": "Three"},
      {"measurement": "animals sacrificed moribund", "setting": "[2]; rabbit, in vivo, 250 mg/kg/day", "value": "One"},
      {"measurement": "AST levels reduced compared to the HFD diet control animals", "setting": "[2]; summary of both rabbit studies", "value": "1.6- to 1.9 fold"},
      {"measurement": "reductions of AST compared to the HFD diet control animals", "setting": "[2]; summary of both rabbit studies", "value": "37 to 47", "unit": "%"},
      {"measurement": "mean AST value", "setting": "[2]; week 8, 25 mg/kg/day in drinking water", "value": 62.5, "unit": "U/L"},
      {"measurement": "increase in HDL-cholesterol over the HFD control mean value", "setting": "[2]; [7]", "value": 1.6, "unit": "fold"},
      {"measurement": "increase in HDL-cholesterol over the control standard diet value", "setting": "[2]; [7]", "value": 3.7, "unit": "fold"},
      {"measurement": "mean HDL-cholesterol value", "setting": "[2]; week 8, 250 mg/kg/day in drinking water, HFD control 36.9, standard diet 15.7 mg/dL", "value": 58.3, "unit": "mg/dL"},
      {"measurement": "mean LDH value", "setting": "[2]; week 8, 250 mg/kg/day in drinking water, HFD control 375 U/L, standard diet control 125.6 U/L", "value": 140, "unit": "U/L"},
      {"measurement": "mean AST value", "setting": "[2]; [7]", "value": 75.7, "unit": "U/L"},
      {"measurement": "change in LDH values compared to the Group 2 HFD controls", "setting": "[2]; week 8, all three dose levels (25, 75, 250 mg/kg/day) in drinking water", "value": "decrease in LDH values at all three dose levels"},
      {"measurement": "depletion of intracellular cystine", "setting": "[3]", "value": "up to 90%"}
    ]},
    {"compound": "CC(=O)N[C@@H](CS)C(=O)O", "note": "[N-acetylcysteine]", "values": [
      {"measurement": "aminotransferase levels and gamma-GT", "setting": "[4]", "value": "improvement"}
    ]},
    {"compound": "vitamin E", "values": [
      {"measurement": "mean AST levels after treatment", "setting": "[5]; decreased from 104±61 IU/L, P<0.002", "value": "33±11", "unit": "IU/L"},
      {"measurement": "mean ALT levels after treatment", "setting": "[5]; decreased from 175±106 IU/L, P<0.01", "value": "40±26", "unit": "IU/L"}
    ]}
  ]
}
